What follows are molecules tested on C3H10T1/2 cells (assay: C3H assay: differentiation of C3H10T1/2 cells by mSHH, measurement of alkaline phosphatase). Details: Mus musculus, C3H 10T1/2; C3H10T1/2 cells stimulated with mSHH for 72 hours; alkaline phosphatase activity; read-out: IC50 Ranges.
Type: cell-based, mouse

Compared with `Cn1ccc(CNC(=O)N2CC(S(=O)(=O)N3CCC(c4c[nH]c5ncccc45)CC3)C2)n1` [Compound 81, N-[(1-Methylpyrazol-3-yl)methyl]-3-[[4-(1H-pyrrolo[2,3-b]pyridin-3-yl)-1-piperidyl]sulfonyl]azetidine-1-carboxamide], `O=C(NCc1cccs1)N1CC(S(=O)(=O)N2CCC(c3c[nH]c4ncccc34)CC2)C1` [Compound 85, 3-[4-(1H-pyrrolo[2,3-b]pyridin-3-yl)piperidin-1-yl]sulfonyl-N-(thiophen-2-ylmethyl)azetidine-1-carboxamide] is lower in IC50: 100 to 1000 nM for the first, 10 to 100 nM for the second. The second is the more potent here.

First: CCN(CC)C(=O)N1CC(S(=O)(=O)N2CCC(c3c[nH]c4ncccc34)CC2)C1 [Compound 82, N,N-diethyl-3-[4-(1H-pyrrolo[2,3-b]pyridin-3-yl)piperidin-1-yl]sulfonylaze-tidine-1-carboxamide]
Second: CC(C)N(C)C(=O)N1CC(S(=O)(=O)N2CCC(c3c[nH]c4ncccc34)CC2)C1 [Compound 119, N-methyl-N-propan-2-yl-3-[4-(1H-pyrrolo [2,3-b]pyridin-3-yl)piperidin-1-yl]sulfonylaze-tidine-1-carboxamide]
The IC50 of the first is higher: 100 to 1000 nM for the first, 10 to 100 nM for the second.

Compared with `O=C(OCc1ccco1)N1CC(S(=O)(=O)N2CCC(c3c[nH]c4ncccc34)CC2)C1` [Compound 83, furan-2-ylmethyl 3-[4-(1H-pyrrolo[2,3-b]pyridin-3-yl)piperidin-1-yl]sulfonylaze-tidine-1-carboxylate], `O=C(NCc1ccco1)N1CC(S(=O)(=O)N2CCC(c3c[nH]c4ncccc34)CC2)C1` [Compound 99, N-(furan-2-ylmethyl)-3-[4-(1H-pyrrolo[2,3-b]pyridin-3-yl)piperidin-1-yl]sulfonylaze-tidine-1-carboxamide] is lower in IC50: 1000 to 10000 nM for the first, 100 to 1000 nM for the second.

`O=C(N1CCCCC1)N1CC(S(=O)(=O)N2CCC(c3c[nH]c4ncccc34)CC2)C1` [Compound 86, piperidin-l-yl-[3-[4-(1H-pyrrolo[2,3-b]pyridin-3-yl)piperidin-1-yl]sulfonylaze-tidin-1-yl]methanone] and `O=C(N1CCCC1)N1CC(S(=O)(=O)N2CCC(c3c[nH]c4ncccc34)CC2)C1` [Compound 87, pyrrolidin-1-yl-[3-[4-(1H-pyrrolo[2,3-b]pyridin-3-yl)piperidin-1-yl]sulfonylaze-tidin-1-yl]methanone] fall in the same range of IC50: 100 to 1000 nM for the first, 100 to 1000 nM for the second.

First: CC(C)N1CC(S(=O)(=O)N2CCC(c3c[nH]c4ncccc34)CC2)C1 [Compound 89, 3-[1-(1-propan-2-ylazetidin-3-yl)sulfonylpiper-idin-4-yl]-1H-pyrrolo[2,3-b]pyridine]
Second: CC(C)NC(=O)N1CC(S(=O)(=O)N2CCC(c3c[nH]c4ncccc34)CC2)C1 [Compound 98, N-propan-2-yl-3-[4-(1H-pyrrolo[2,3-b]pyridin-3-yl)piperidin-1-yl]sulfonylaze-tidine-1-carboxamide]
The IC50 of the first is higher: 1000 to 10000 nM for the first, 100 to 1000 nM for the second. The second is the more potent here.

`CN(C)S(=O)(=O)N1CC(S(=O)(=O)N2CCC(c3c[nH]c4ncccc34)CC2)C1` [Compound 90, N,N-dimethyl-3-[4-(1H-pyrrolo[2,3-b]pyridin-3-yl)piperidin-1-yl]sulfonylaze-tidine-1-sulfonamide] and `CS(=O)(=O)N1CC(S(=O)(=O)N2CCC(c3c[nH]c4ncccc34)CC2)C1` [Compound 91, 3-[1-(1-Methylsulfonylazetidin-3-yl)sulfonyl-4-piperidyl]-1H-pyrrolo[2,3-b]pyridine] fall in the same range of IC50: 100 to 1000 nM for the first, 100 to 1000 nM for the second.

`CN(C)S(=O)(=O)n1cc(C2CCN(S(=O)(=O)C3CN(C(=O)OC(C)(C)C)C3)CC2)c2cccnc21` [Compound 92, tert-butyl 3-[4-[1-(dimethylsulfamoyl)pyrrolo[2,3-b]pyridin-3-yl]piperidin-1-yl]sulfonylaze-tidine-1-carboxylate] and `CC(C)(C)OC(=O)N1CC(S(=O)(=O)N2CCC(c3cn(S(C)(=O)=O)c4ncccc34)CC2)C1` [Compound 93, tert-Butyl 3-[[4-(1-methylsulfonylpyrrolo[2,3-b]pyridin-3-yl)-1-piperidyl]sulfonyl]azetidine-1-carboxylate] fall in the same range of IC50: 1000 to 10000 nM for the first, 1000 to 10000 nM for the second.

Compared with `Cn1cc(C2CCN(S(=O)(=O)C3CN(C(=O)OC(C)(C)C)C3)CC2)c2cccnc21` [Compound 94, tert-Butyl 3-[[4-(1-methylpyrrolo[2,3-b]pyridin-3-yl)-1-piperidyl]sulfonyl]azetidine-1-carboxylate], `CC(C)(C)OC(=O)N1CC(S(=O)(=O)N2CCC(c3c[nH]c4ncccc34)CC2)C1` [Compound 110, tert-butyl 3-[4-(1H-pyrrolo[2,3-b]pyridin-3-yl)piperidin-1-yl]sulfonylaze-tidine-1-carboxylate] is lower in IC50: 100 to 1000 nM for the first, 10 to 100 nM for the second. The second is the more potent here.

Compared with `Cc1nn(C)c(C)c1CNC(=O)N1CC(S(=O)(=O)N2CCC(c3c[nH]c4ncccc34)CC2)C1` [Compound 95, 3-[4-(1H-pyrrolo[2,3-b]pyridin-3-yl)piperidin-1-yl]sulfonyl-N-[(1,3,5-trimethylpyrazol-4-yl)methyl]azetidine-1-carboxamide], `CC(C)(C)NC(=O)N1CC(S(=O)(=O)N2CCC(c3c[nH]c4ncccc34)CC2)C1` [Compound 108, N-tert-butyl-3-[4-(1H-pyrrolo[2,3-b]pyridin-3-yl)piperidin-1-yl]sulfonylaze-tidine-1-carboxamide] is lower in IC50: 100 to 1000 nM for the first, 10 to 100 nM for the second.

`O=C(Nc1cccnc1)N1CC(S(=O)(=O)N2CCC(c3c[nH]c4ncccc34)CC2)C1` [Compound 96, N-pyridin-3-yl-3-[4-(1H-pyrrolo[2,3-b]pyridin-3-yl)piperidin-1-yl]sulfonylaze-tidine-1-carboxamide] and `O=S(=O)(C1CN(c2ccccn2)C1)N1CCC(c2c[nH]c3ncccc23)CC1` [Compound 118, 3-[1-[1-(2-Pyridyl)azetidin-3-yl]sulfonyl-4-piperidyl]-1H-pyrrolo[2,3-b]pyridine] fall in the same range of IC50: 10 to 100 nM for the first, 10 to 100 nM for the second.

Compared with `CC(C)(C)OC(=O)N1CC(S(=O)(=O)N2CCC(c3cnc4ccccn34)CC2)C1` [Compound 100, tert-butyl 3-(4-imidazo[1,2-a]pyridin-3-ylpiperidin-1-yl)sulfonylaze-tidine-1-carboxylate], `Cn1cncc1C1CCN(S(=O)(=O)C2CN(C(=O)OC(C)(C)C)C2)CC1` [Compound 102, tert-butyl 3-[4-(3-methylimidazol-4-yl)piperidin-1-yl]sulfonylaze-tidine-1-carboxylate] is higher in IC50: 100 to 1000 nM for the first, 1000 to 10000 nM for the second. The first is the more potent here.

Compared with `CC(C)(C)OC(=O)N1CC(S(=O)(=O)N2CCC(c3cnc4n3CCCC4)CC2)C1` [Compound 101, tert-butyl 3-[4-(5,6,7,8-tetrahydroimidazo [1,2-a]pyridin-3-yl)piperidin-1-yl]sulfonylaze-tidine-1-carboxylate], `COc1cnc2[nH]cc(C3CCN(S(=O)(=O)C4CN(C(=O)OC(C)(C)C)C4)CC3)c2c1` [Compound 123, tert-butyl 3-[4-(5-methoxy-1H-pyrrolo[2,3-b]pyridin-3-yl)piperidin-1-yl]sulfonylaze-tidine-1-carboxylate] is lower in IC50: 1000 to 10000 nM for the first, 100 to 1000 nM for the second. The second is the more potent here.

`CCOC(=O)N1CCC(S(=O)(=O)N2CCC(c3ccncc3)CC2)CC1` [Compound 103, ethyl 4-(4-pyridin-4-ylpiperidin-1-yl)sulfonylpiper-idine-1-carboxylate] and `COC(=O)N1CCC(S(=O)(=O)N2CCC(c3ccncc3)CC2)CC1` [Compound 106, methyl 4-(4-pyridin-4-ylpiperidin-1-yl)sulfonylpiper-idine-1-carboxylate] fall in the same range of IC50: 1000 to 10000 nM for the first, 1000 to 10000 nM for the second.

First: O=C(NC1CCC1)N1CCC(S(=O)(=O)N2CCC(c3ccncc3)CC2)CC1 [Compound 104, N-cyclobutyl-4-(4-pyridin-4-ylpiperidin-1-yl)sulfonylpiper-idine-1-carboxamide]
Second: CC(C)(C)NC(=O)N1CCC(S(=O)(=O)N2CCC(c3ccncc3)CC2)CC1 [Compound 111, N-tert-butyl-4-(4-pyridin-4-ylpiperidin-1-yl)sulfonylpiper-idine-1-carboxamide]
The IC50 of the first is higher: 1000 to 10000 nM for the first, 100 to 1000 nM for the second. The second is the more potent here.

`CC(C)OC(=O)N1CCC(S(=O)(=O)N2CCC(c3ccncc3)CC2)CC1` [Compound 105, propan-2-yl 4-(4-pyridin-4-ylpiperidin-1-yl)sulfonylpiper-idine-1-carboxylate] and `O=C(Oc1ccccc1)N1CCC(S(=O)(=O)N2CCC(c3ccncc3)CC2)CC1` [Compound 114, phenyl 4-(4-pyridin-4-ylpiperidin-1-yl)sulfonylpiper-idine-1-carboxylate] fall in the same range of IC50: 1000 to 10000 nM for the first, 1000 to 10000 nM for the second.

Compared with `O=S(=O)(C1CCN(c2ccccc2)CC1)N1CCC(c2ccncc2)CC1` [Compound 113, 4-[1-[(1-Phenyl-4-piperidyl)sulfonyl]-4-piperidyl]pyridine], `CC(C)(C)OC(=O)N1CC(S(=O)(=O)N2CCC(c3c[nH]c4ccccc34)CC2)C1` [Compound 125, tert-butyl 3-[4-(1H-indol-3-yl)piperidin-1-yl]sulfonylaze-tidine-1-carboxylate] is lower in IC50: 1000 to 10000 nM for the first, 10 to 100 nM for the second.

Compared with `CC(C)(C)OC(=O)N1CCC(S(=O)(=O)N2CCC(c3c[nH]c4ncc(C(F)(F)F)cc34)CC2)CC1` [Compound 116], `CC(C)(C)OC(=O)N1CC(S(=O)(=O)N2CCC(c3c[nH]c4ncc(C(F)(F)F)cc34)CC2)C1` [Compound 121, tert-butyl 3-[4-[5-(trifluoromethyl)-1H-pyrrolo[2,3-b]pyridin-3-yl]piperidin-1-yl]sulfonylaze-tidine-1-carboxylate] is higher in IC50: 100 to 1000 nM for the first, 1000 to 10000 nM for the second.

First: Cn1cc(-c2cnc3[nH]cc(C4CCN(S(=O)(=O)C5CCN(C(=O)OC(C)(C)C)CC5)CC4)c3c2)cn1 [Compound 117, tert-butyl 4-[4-[5-(1-methylpyrazol-4-yl)-1H-pyrrolo [2,3-b]pyridin-3-yl]piperidin-1-yl]sulfonylpiper-idine-1-carboxylate]
Second: CC(C)(C)OC(=O)N1CC(S(=O)(=O)N2CCC(C3COc4cccnc43)CC2)C1 (stereo not shown) [Compound 127, tert-butyl 3-[4-(2,3-dihydrofuro[3,2-b]pyridin-3-yl)piperidin-1-yl]sulfonylaze-tidine-1-carboxylate]
The IC50 of the first is higher: 1000 to 10000 nM for the first, 100 to 1000 nM for the second.

`COC(=O)N1CC(S(=O)(=O)N2CCC(c3coc4cccnc34)CC2)C1` [Compound 126, methyl 3-(4-furo [3,2-b]pyridin-3-ylpiperidin-1-yl)sulfonylaze-tidine-1-carboxylate] showed an IC50 of 100 to 1000 nM.

Reference: patent publication US10961238B2, “Modulators of hedgehog (Hh) signaling pathway” (E-THERAPEUTICS PLC, priority 2016, dated 2021)
